In ChEMBL document CHEMBL1201862, “PubChem BioAssay data set” (2004):
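Where inhibition never reached the appropriate level, the endpoint shown equals the highest concentration tested. Otherwise, values were interpolated linearly from a five-concentration, 48-hour dose response in 96-well plates. GI50 marks 50% less growth.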 Activity calls are given as the source filed them. Rule as the data show it: active = GI50 up to about 1.1 µM and inactive = higher.

How the values were obtained:
Assay in all cases: inhibition of tumour cell growth, NCI panel, 48 h
[1] = system: IGROV-1
[2] = system: OVCAR-8
[3] = system: TK-10
[4] = system: SW-620
[5] = system: UO-31
[6] = system: RXF 393
[7] = system: EKVX
[8] = system: HOP-92
[9] = system: M14
[10] = system: HOP-62
[11] = system: SNB-19
[12] = system: COLO 205
[13] = system: UACC-257
[14] = system: NCI-H460
[15] = system: NCI-H23
[16] = system: SK-MEL-28

Measured: GI50

CN1CCc2c1nc(-c1cccnc1)c1c2N(C)CC1
inactive: [1] > 100 µM | [2] > 100 µM | [3] > 100 µM | [4] > 100 µM | [5] 48.8 µM | [6] > 100 µM | [7] > 100 µM | [8] 88.5 µM | [9] > 100 µM | [10] > 100 µM | [11] > 100 µM | [12] > 100 µM | [13] > 100 µM | [14] > 100 µM | [15] > 100 µM

Cc1cc(N(CCC#N)CCC#N)ccc1/N=N/c1cccc(Cl)c1
inactive: [2] > 100 µM | [3] > 100 µM | [4] > 100 µM | [5] > 100 µM | [6] 75 µM | [7] > 100 µM | [8] 20.7 µM | [9] > 100 µM | [16] > 100 µM | [10] 86.5 µM | [11] 51.8 µM | [12] > 100 µM | [13] > 100 µM | [14] 5.75 µM | [15] 80.7 µM

CC(=O)C(CN(CC(C)C)CC(C)C)C(c1ccccc1)c1c(O)c2ccccc2oc1=O (stereo not drawn)
inactive: [1] > 100 µM | [2] > 100 µM | [3] > 100 µM | [4] > 100 µM | [6] > 100 µM | [7] > 100 µM | [8] > 100 µM | [9] > 100 µM | [16] > 100 µM | [10] > 100 µM | [11] > 100 µM | [12] > 100 µM | [13] > 100 µM | [15] > 100 µM

CN(C)CCN(C)C(=O)C1CCCN1C(=O)OCc1ccccc1 (stereo not drawn)
inactive: [1] > 100 µM | [2] > 100 µM | [3] > 100 µM | [4] > 100 µM | [5] > 100 µM | [6] > 100 µM | [7] > 100 µM | [8] > 100 µM | [9] > 100 µM | [16] > 100 µM | [10] > 100 µM | [11] > 100 µM | [12] > 100 µM | [13] > 100 µM | [14] > 100 µM | [15] > 100 µM

O=S1(=O)C[C@H](O)[C@H](O)CS1
inactive: [1] > 100 µM | [2] > 100 µM | [3] > 100 µM | [4] > 100 µM | [5] > 100 µM | [6] > 100 µM | [7] > 100 µM | [8] > 100 µM | [9] > 100 µM | [16] > 100 µM | [10] > 100 µM | [11] > 100 µM | [12] > 100 µM | [13] > 100 µM | [14] > 100 µM | [15] > 100 µM

O=C(Nc1nc2c(ncn2C2OC(CO)C(O)C2O)c(=O)[nH]1)c1ccccc1 (stereo not drawn)
inactive: [1] > 100 µM | [2] > 100 µM | [3] > 100 µM | [4] > 100 µM | [5] > 100 µM | [6] 63 µM | [7] > 100 µM | [8] > 100 µM | [9] > 100 µM | [16] > 100 µM | [10] > 100 µM | [12] > 100 µM | [13] > 100 µM | [14] > 100 µM | [15] > 100 µM

Cc1oc2c(C)c(O)c3c(c2c1C1(C)OCCO1)C(=O)C=C(Cl)C3=O
inactive: [1] > 100 µM | [2] > 100 µM | [3] > 100 µM | [4] > 100 µM | [5] > 100 µM | [6] > 100 µM | [7] > 100 µM | [8] > 100 µM | [9] > 100 µM | [16] > 100 µM | [10] > 100 µM | [11] > 100 µM | [12] > 100 µM | [13] > 100 µM | [14] > 100 µM | [15] > 100 µM

O=c1c(Cc2ccccc2)c(O)cc2n1CCC2
inactive: [1] > 100 µM | [2] > 100 µM | [3] > 100 µM | [4] > 100 µM | [5] > 100 µM | [6] > 100 µM | [7] > 100 µM | [8] > 100 µM | [9] > 100 µM | [16] > 100 µM | [10] > 100 µM | [11] > 100 µM | [12] > 100 µM | [13] > 100 µM | [14] > 100 µM | [15] > 100 µM

COc1ccc(N2C(=O)C3c4[nH]c5ccccc5c4C4CC(C)CC(C)C4C3C2=O)cc1 (stereo not drawn)
inactive: [1] > 100 µM | [2] > 100 µM | [4] > 100 µM | [5] > 100 µM | [6] > 100 µM | [7] > 100 µM | [8] > 100 µM | [9] > 100 µM | [16] > 100 µM | [10] > 100 µM | [11] > 100 µM | [12] > 100 µM | [13] > 100 µM | [15] > 100 µM

C=CCC1(CN(C)C)CC/C(=C\c2cc(OC)c(OC)c(OC)c2)C1=O (stereo not drawn)
inactive: [1] 29.4 µM | [2] 22.8 µM | [3] 18.8 µM | [4] 18.7 µM | [5] 26.5 µM | [6] 19.2 µM | [7] 12.2 µM | [8] 90.6 µM | [9] 19.4 µM | [16] 34.2 µM | [10] 77.8 µM | [11] 34 µM | [12] 17 µM | [13] 27.7 µM | [14] 18.8 µM | [15] 35 µM

CC(C)C1=Cc2ccc3c(c2C(=O)C1=O)CCCC3(C)C [MILTIRONE]
inactive: [1] 5.93 µM | [2] 4.29 µM | [3] 3.14 µM | [4] 3.15 µM | [5] 6.64 µM | [6] 1.85 µM | [7] 14.5 µM | [8] 4.18 µM | [9] 5.46 µM | [16] 5.62 µM | [10] 19.6 µM | [11] 17.2 µM | [12] 4.19 µM | [13] 3.08 µM | [14] 17.3 µM | [15] 13.7 µM

N#CC12Cc3cc4c(cc3-c3cccc(c31)CCN2C(=O)c1ccccc1)OCO4 (stereo not drawn)
inactive: [1] > 100 µM | [2] 65.3 µM | [3] > 100 µM | [4] > 100 µM | [5] > 100 µM | [6] 53.1 µM | [7] > 100 µM | [8] 22.8 µM | [9] > 100 µM | [16] > 100 µM | [10] 53.8 µM | [11] 68.1 µM | [12] > 100 µM | [13] > 100 µM | [15] > 100 µM

Cc1cccc(NC2=NC(=O)C(CC(=O)Nc3ccccc3Cl)S2)c1 (stereo not drawn)
inactive: [1] > 100 µM | [2] > 100 µM | [3] > 100 µM | [4] > 100 µM | [5] > 100 µM | [6] > 100 µM | [7] > 100 µM | [8] > 100 µM | [9] > 100 µM | [16] > 100 µM | [11] > 100 µM | [13] > 100 µM | [14] > 100 µM | [15] > 100 µM
